Laboratory results as given in patent publication US11117919B2, “Icariside compound, preparation method thereof, and application thereof” (FOSHAN GOLDEN HEALTH TECHNOLOGY CO., LTD., priority 2015, dated 2021).

Tests used:
[1] = test system: normal human peripheral blood mononuclear cells (PBMCs); experiment: IFN-γ production by PBMCs stimulated with Anti-CD3/Anti-CD28 (ELISA); format: cell-based; settings: PBMCs treated with anti-CD3 and anti-CD28 (1 μg/ml each); icariside I 1, 10, 100 ng/ml; 12-48 h; dose-dependent
Protocol: Effect of icariside I on promoting normal human peripheral blood mononuclear cells (PBMCs subjected to mAb treatment) to produce γ-interferon (interferon-gamma, IFN-γ) (an experimental model mimicking enhancing immunity in human body).
(1) Preparation of icariside I solution for the test. 10 mg icariside I was dissolved in 1 ml DMSO (with initial concentration of 10 mg/ml). The solution was then transferred into small vials and stored in a freezer at −80° C. for future use.
The whole blood samples were drawn from peripheral vein of healthy volunteers. Heparin (blood:heparin=10 ml: 80 μl) was used for anticoagulation. Then, it is diluted with equal volume of Hank's solution. The diluted blood samples were slowly laid on the Ficoll separation solution (Ficoll to diluted blood ratio is 3:4) followed by Ficoll density gradient centrifugation (22° C. 2200 r/min, 20 min). After centrifugation, samples were divided into three layers in the tube. At the interface between the top and middle layers, there was a narrow band which is a mononuclear cell-based yellow-white cloud layer. The peripheral blood mononuclear cells (PBMCs) were drawn and transferred into another centrifuge tube with a pipette. […] The mononuclear cells were counted with trypan blue solution. […]
The collected cell culture supernatants with different culture time were detected with ELISA to measure the amount of cytokine IFN-γ produced. […]

[2] = test system: S180 ascites tumor of mice; experiment: Inhibition of S180 tumor growth in mice; settings: for change of body weight (g) / tumor inhibition rate (%) with physiological saline group as control / tumor inhibition rate (%) with solvent group as control / weight of tumor (x ± SD, g): 10 days
Protocol: NIH mice used for the tests were about 18-22 grams and divided into 10 mice per group. The liquid (0.2 ml) of S180 ascites tumor of mice was inoculated subcutaneously into the armpit region of mice. The next day after the inoculation, each group of mice were injected intraperitoneally: (1) physiological saline group; (2) solvent control group (DMSO); (3) positive control group [cyclophosphamide 60 mg/(kg·d)]; (4) low-dose group 1: icariside I 2 mg/(kg·d); (5) low-dose group 2: icariside I 5 mg/(kg·d); (6) middle-dose group: icariside I 10 mg/(kg·d); (7) high-dose group: icariside I 20 mg/(kg·d). After administration for 10 continuous days, the administration was stopped and on the next day, the mice were weighed and sacrificed with tumor mass stripped and weighed. The physiological saline group and solvent group were used as a control for calculation of tumor inhibition rate.

## COc1ccc(-c2oc3c(CC=C(C)C)c(O[C@@H]4O[C@H](CO)[C@@H](O)[C@H](O)[C@H]4O)cc(O)c3c(=O)c2O)cc1 [icariside I]
[1]
  IFN-γ level produced by PBMCs: significantly enhanced
[2]; S180, intraperitoneal, 10 continuous days, 2-20 mg/(kg·d)
  tumorigenesis and tumor progression in mice: significantly inhibit
[2]; high dose 20 mg/Kg i.p.
  change of body weight (g): +9.0 g
  tumor inhibition rate (%) with physiological saline group as control: 67.3%
  tumor inhibition rate (%) with solvent group as control: 74.6%
  weight of tumor (x ± SD, g): 0.34 ± 0.12 g
[2]; low dose 2 mg/Kg i.p.
  change of body weight (g): +11.6 g
  tumor inhibition rate (%) with physiological saline group as control: 5.8%
  tumor inhibition rate (%) with solvent group as control: 26.9%
  weight of tumor (x ± SD, g): 0.98 ± 0.47 g
[2]; low dose 5 mg/Kg i.p.
  change of body weight (g): +12.5 g
  tumor inhibition rate (%) with physiological saline group as control: 26.0%
  tumor inhibition rate (%) with solvent group as control: 42.5%
  weight of tumor (x ± SD, g): 0.77 ± 0.47 g
[2]; middle dose 10 mg/Kg i.p.
  change of body weight (g): +10.6 g
  tumor inhibition rate (%) with physiological saline group as control: 38.5%
  tumor inhibition rate (%) with solvent group as control: 52.2%
  weight of tumor (x ± SD, g): 0.64 ± 0.25 g
